Test results: patent US20240131045A1, “METHODS FOR TREATMENT OF VIRAL INFECTIONS” (priority 2022, published 2024)
Where two headings read alike, the source gives them in different places.

Experiments:
in vivo = settings: monkey
[1] = Phase 1 study, safety and tolerability in healthy participants
[2] = Intracellular PK of compound A (GS-443902) in PBMCs, Phase 1 study; settings: healthy participants
[3] = Urine PK and renal clearance of compound 1, Phase 1 study
[4] = Phase 1 single- and multiple-ascending dose study, compound 1 plasma PK in healthy participants
[5] = human, in vivo, 500 mg
[6] = both, human, in vivo
[7] = human, in vivo
[8] = human, in vivo; remark: listed apart in the source
From the text: To note, eGFR was estimated using Modification of Diet in Renal Disease (MDRD) equation shown below. Furthermore, participants with kidney failure who were on dialysis are not included in this regression analysis.

N#C[C@@]1(c2ccc3c(N)ncnn23)O[C@H](CO)[C@@H](O)[C@H]1O [compound 1]
AUC(0-t) (in vivo): 18200 to 36400 ng·h/mL

CC(C)C(=O)OC[C@H]1O[C@@](C#N)(c2ccc3c(N)ncnn23)[C@H](O)[C@@H]1O [compound 16, obeldesivir]
AE ([1]; 500 mg BID (n = 6)): 2 n | AE related to study drug ([1]; 500 mg BID (n = 6)): 1 n | Grade 2 creatinine clearance decrease ([1]; 500 mg BID (n = 6)): 0 n | Grade 2 laboratory abnormalities ([1]; 500 mg BID (n = 6)): 0 n | Grade 3 laboratory abnormalities ([1]; 500 mg BID (n = 6)): 0 n | Grade 3 lipase increase ([1]; 500 mg BID (n = 6)): 0 n | Grade ≥3 AE ([1]; 500 mg BID (n = 6)): 0 n | AE ([1]; 900 mg QD (n = 6)): 1 n | AE related to study drug ([1]; 900 mg QD (n = 6)): 0 n | Grade 2 creatinine clearance decrease ([1]; 900 mg QD (n = 6)): 2 n | Grade 2 laboratory abnormalities ([1]; 900 mg QD (n = 6)): 2 n | Grade 3 laboratory abnormalities ([1]; 900 mg QD (n = 6)): 0 n | Grade 3 lipase increase ([1]; 900 mg QD (n = 6)): 0 n | Grade ≥3 AE ([1]; 900 mg QD (n = 6)): 0 n | participants with headache (Grade 1) attributed to study drug ([1]; 2 of 8 participants, Cohort 5 (500 mg BID for 5 days)): 25% | participants with contact dermatitis ([1]; 2 of 48 participants): 4.2% | participants with study drug-related AEs (headaches) ([1]; 2 of 58 participants who received compound 16): 3.4% | participants with headache ([1]; 3 of 48 participants): 6.3% | participants with decreased creatinine clearance ([1]; 6 of 8 participants, Cohort 4 (1,600 mg single dose)): 75% | participants with treatment-emergent adverse events (TEAEs) ([1]; 10 of 48 participants, compound 16 or placebo, Cohorts 1-6): 21% | participants with decreased creatinine clearance ([1]; 13 of 48 participants overall): 27% | participants with a decrease in creatinine clearance ([1]; 18 of 58 participants who received compound 16): 31% | participants with graded postbaseline laboratory abnormalities ([1]; 25 of 48 participants): 52.1% | Grade 3 or higher AEs ([1]; 48 participants, Cohorts 1-6): no Grade 3 or higher AEs | serious AEs ([1]; 48 participants, Cohorts 1-6): no serious AEs | Grade 3 laboratory abnormality (lipase elevation at Day 3) ([1]; Cohort 2 (300 mg single dose)): one Grade 3 laboratory abnormality | changes in vital signs, electrocardiograms (ECGs), visual acuity, or fundoscopic examinations ([1]; Cohorts 1-6): no clinically relevant changes | safety and tolerability ([1]; Example 2, Cohorts 1-6, compound 16 or placebo): safe and well tolerated | safety and tolerability ([1]; Example 4, healthy participants): safe and well tolerated | AE ([1]; Fasted 500 mg (n = 11)): 3 n | AE related to study drug ([1]; Fasted 500 mg (n = 11)): 1 n | Grade 2 creatinine clearance decrease ([1]; Fasted 500 mg (n = 11)): 2 n | Grade 2 laboratory abnormalities ([1]; Fasted 500 mg (n = 11)): 2 n | Grade 3 laboratory abnormalities ([1]; Fasted 500 mg (n = 11)): 0 n | Grade 3 lipase increase ([1]; Fasted 500 mg (n = 11)): 0 n | Grade ≥3 AE ([1]; Fasted 500 mg (n = 11)): 0 n | AE ([1]; Fed 500 mg (n = 11)): 1 n | AE related to study drug ([1]; Fed 500 mg (n = 11)): 0 n | Grade 2 creatinine clearance decrease ([1]; Fed 500 mg (n = 11)): 5 n | Grade 2 laboratory abnormalities ([1]; Fed 500 mg (n = 11)): 5 n | Grade 3 laboratory abnormalities ([1]; Fed 500 mg (n = 11)): 0 n | Grade 3 lipase increase ([1]; Fed 500 mg (n = 11)): 0 n | Grade ≥3 AE ([1]; Fed 500 mg (n = 11)): 0 n | AE ([1]; single dose 100 mg (n = 6)): 1 n | AE related to study drug ([1]; single dose 100 mg (n = 6)): 0 n | Grade 2 creatinine clearance decrease ([1]; single dose 100 mg (n = 6)): 0 n | Grade 2 laboratory abnormalities ([1]; single dose 100 mg (n = 6)): 1 n | Grade 3 laboratory abnormalities ([1]; single dose 100 mg (n = 6)): 0 n | Grade 3 lipase increase ([1]; single dose 100 mg (n = 6)): 0 n | Grade ≥3 AE ([1]; single dose 100 mg (n = 6)): 0 n | AE ([1]; single dose 300 mg (n = 6)): 0 n | AE related to study drug ([1]; single dose 300 mg (n = 6)): 0 n | Grade 2 creatinine clearance decrease ([1]; single dose 300 mg (n = 6)): 1 n | Grade 2 laboratory abnormalities ([1]; single dose 300 mg (n = 6)): 1 n | Grade 3 laboratory abnormalities ([1]; single dose 300 mg (n = 6)): 1 n | Grade 3 lipase increase ([1]; single dose 300 mg (n = 6)): 1 n | Grade ≥3 AE ([1]; single dose 300 mg (n = 6)): 0 n | AE ([1]; single dose 900 mg (n = 6)): 0 n | AE related to study drug ([1]; single dose 900 mg (n = 6)): 0 n | Grade 2 creatinine clearance decrease ([1]; single dose 900 mg (n = 6)): 2 n | Grade 2 laboratory abnormalities ([1]; single dose 900 mg (n = 6)): 2 n | Grade 3 laboratory abnormalities ([1]; single dose 900 mg (n = 6)): 0 n | Grade 3 lipase increase ([1]; single dose 900 mg (n = 6)): 0 n | Grade ≥3 AE ([1]; single dose 900 mg (n = 6)): 0 n | AE ([1]; single dose 1600 mg (n = 6)): 2 n | AE related to study drug ([1]; single dose 1600 mg (n = 6)): 0 n | Grade 2 creatinine clearance decrease ([1]; single dose 1600 mg (n = 6)): 6 n | Grade 2 laboratory abnormalities ([1]; single dose 1600 mg (n = 6)): 6 n | Grade 3 laboratory abnormalities ([1]; single dose 1600 mg (n = 6)): 0 n | Grade 3 lipase increase ([1]; single dose 1600 mg (n = 6)): 0 n | Grade ≥3 AE ([1]; single dose 1600 mg (n = 6)): 0 n | intracellular concentrations of compound A in PBMCs versus dose [2]: Dose-proportional increases | compound 16 in urine ([3]; in vivo): not detectable | target therapeutic exposures of plasma compound 1 and intracellular compound A ([4]; 900 mg QD and 500 mg BID for 5 days, respectively): reached or exceeded | dose proportionality of compound 1 PK ([4]; 1600 mg dose): less than dose-proportional increases | dose proportionality of compound 1 PK ([4]; 100 to 900 mg range): linear and dose-proportional PK | compound 16 prodrug levels in plasma ([4]; healthy participants): either undetectable or low and transient | Compound 1 plasma AUC0-24 [5]: 20,903 h · ng/mL | Compound 1 plasma AUCinf [5]: 22,100 h · ng/mL | Compound 1 plasma AUClast [5]: 22,000 h · ng/mL | Compound 1 plasma Cmax [5]: 3600 ng/mL | Compound 1 plasma t1/2 [5]: 6.3 h | compound 1 terminal plasma elimination half-life [6]: 6 to 7 h | Compound 1 plasma AUC (AUCinf) ([6]; 100 mg): 3700 ng·h/mL | Compound 1 plasma Cmax ([6]; 100 mg): 570 ng/mL | Compound 1 plasma t1/2 ([6]; 100 mg): 5.85 h | Compound 1 plasma AUC (AUCinf) ([6]; 300 mg): 10,400 h · ng/mL | Compound 1 plasma Cmax ([6]; 300 mg): 1830 ng/mL | Compound 1 plasma Tmax ([6]; 300 mg): 0.78 h | Compound 1 plasma Cmax ([6]; 500 mg): 3820 ng/mL | Compound 1 plasma AUC (AUCD1) ([6]; 900 mg): 32,000 h · ng/mL | Compound 1 plasma AUC (AUCinf) ([6]; 900 mg): 34,600 h · ng/mL | Compound 1 plasma AUC (AUCtau) ([6]; 900 mg): 35,700 h · ng/mL | Compound 1 plasma Tmax ([6]; 900 mg): 1.5 h | Compound 1 plasma t1/2 ([6]; 900 mg): 7.36 h | Compound 1 plasma AUC (AUCinf) ([6]; 1600 mg): 48,300 h · ng/mL | Compound 1 plasma Cmax ([6]; 1600 mg): 7170 ng/mL | Compound 1 plasma Tmax ([6]; 1600 mg): 1.5 h | Compound 1 plasma t1/2 ([6]; 1600 mg): 15.7 h | plasma half-life of metabolite compound 1 ([6]; po): ~6 h | compound 1 metabolite renal clearance [7]: 150 to 180 mL/min

CCC(CC)COC(=O)[C@H](C)N[P@](=O)(OC[C@H]1O[C@@](C#N)(c2ccc3c(N)ncnn23)[C@H](O)[C@@H]1O)Oc1ccccc1 [remdesivir]
compound 1 renal clearance (CLr) after remdesivir or compound 16 administration ([3]; amount excreted in urine over the corresponding plasma AUC): comparable | plasma increase of compound 1 AUCinf [8]: ~35% | plasma increase of compound 1 Cmax [8]: ~10%
